Assay results from patent publication US11478493B2, “Fabrication and application of a hetero-targeted nano-cocktail with traceless linkers” (priority 2019, dated 2022).

Tested on: SKOV-3 cells
Assay: Cytotoxicity assay (MTT) against SKOV-3 cells
Type: cell-based, Human
Conditions: SKOV-3, 72 hours
Method: Human ovarian cancer cells, SKOV-3 and SKOV-3/Luc cells, were cultured in GIBCO™ DMEM supplemented with 10% FBS, 100 units/mL penicillin, and 100 μg/mL streptomycin at 37° C. in […] culture flasks under a humidified atmosphere of 5% CO2. Cells were sub-cultured when the cell confluence reached ˜80%.
The anticancer activities of polymer nanogels against SKOV-3 cells were evaluated by MTT assay. Cells were seeded in 96-well plates at a density of 5,000 cells/well for 24 hours prior to the test at 37° C. with 5% CO2. Then the cells were treated with varying concentrations of PTX/DOX or polymer nanogels in fresh medium and further incubated for 72 hours. In the control group, cells were allowed to grow without any treatment. After that, the medium was replaced with 100 μL fresh medium containing MTT reagent (final concentration 1 mg/mL) and cells were further incubated for 4 hours. The purple MTT crystal was dissolved with 100 μL MTT stop solution and the optical density at 595 nm was recorded on a microplate reader (ELx808™ Absorbance Microplace Reader, Bio-Tech Instrument, Inc.).

| Structure (SMILES) | IC50 (DOX, PPD and PPDA nanogels) [nM] | IC50 (Homo sapiens, SK-OV-3, PTX, PPP and PPPM nanogels) [nM] |
| --- | --- | --- |
| COc1cccc2c1C(=O)c1c(O)c3c(c(O)c1C2=O)C[C@@](O)(C(=O)CO)C[C@@H]3O[C@H]1C[C@H](N)[C@H](O)[C@H](C)O1 [DOX, doxorubicin] | 582 | – |
| CC(=O)O[C@H]1C(=O)[C@@]2(C)[C@H]([C@H](OC(=O)c3ccccc3)[C@]3(O)C[C@H](OC(=O)[C@H](O)[C@@H](NC(=O)c4ccccc4)c4ccccc4)C(C)=C1C3(C)C)[C@]1(OC(C)=O)CO[C@@H]1C[C@@H]2O [PTX, paclitaxel] | – | 30.6 |
